Publication PMC7397269, “Synthesis and Evaluation of New Coumarin Derivatives as Antioxidant, Antimicrobial, and Anti-Inflammatory Agents” (Molecules, 2020)
≈ marks a conversion by molar mass, not a printed value.

Legend:
[1] = DPPH antioxidant assay (radical scavenging); type: biochemical; settings: mean ± SD (n = 3)
Method: The antioxidant effects of the synthesised compounds were assessed using the 2,2-diphenyl-1-picrylhydrazyl (DPPH) antioxidant assay. Table 1 summarises the antioxidant effects of the test samples and ascorbic acid except for compound 5b because it was produced in poor yield.
The radical scavenging activity of the synthesised compounds was measured using the DPPH microplate-based method. The absorbance was measured using a microplate/cuvette reader (Spectramax M5, Molecular Devices, San Jose, CA, USA). Reference standard ascorbic acid was utilised as the positive control for this assay. Test samples were prepared at a starting concentration of 200 μg/mL after mixing with 100 μL of 0.2 mM DPPH methanolic solution. […] Samples were incubated with DPPH in the dark for 30 min at room temperature (25 °C). The methanolic DPPH solution was prepared daily and stored in a flask covered with aluminium foil. DPPH radicals have an absorption maximum (λmax) at 515 nm, at which the absorbance values were measured and converted into a percentage of antioxidant activity.
The methanolic DPPH solution without antioxidants was used as a control, and samples in methanol alone served as a background control. IC50 was determined using GraphPad Prism 7 (GraphPad Software Inc., San Diego, CA, USA). The percent inhibition was calculated using the following Equation (1):(1) % Inhibition=100−Sample Absorbance −Sample background Absorbance/DPPH only Absorbance×100
The assay was carried out in triplicate and performed as much as possible in an area protected against light. The data points are presented as the mean ± standard deviation (SD, n = 3).

[2] = system: Staphylococcus aureus ATCC 29213; experiment: Agar well diffusion, S. aureus; type: cell-based; settings: ATCC29213, 100 μL of 10 mg/mL in DMSO, read-out: diameter of inhibition zone, SA
Description: (§1) The new molecules were individually tested for their antimicrobial activity in vitro against standard bacteria strains from the American Type Culture Collection (ATCC), namely, Staphylococcus aureus ATCC 29213, Bacillus subtilis ATCC 6633, Bacillus megaterium ATCC 9885 (Gram-positive), Escherichia coli ATCC 2592, and Pseudomonas aeruginosa ATCC 27,953 (Gram-negative). The compounds were also microbiologically tested against locally isolated Saccharomyces cerevisiae (yeast) and the standard Agricultural Research Service Culture Collection (NRRL) strain of the yeast-like pathogenic fungus Candida albicans NRRL Y-477. Primary screening was conducted using the agar well diffusion method using nutrient agar (NA) medium and Sabourand dextrose agar (SDA) medium for the tested pathological bacteria and yeast, respectively. […].
(§2) Antimicrobial tests were conducted via the agar well diffusion method using 100 μL of suspension containing 1 × 10^8 CFU/mL pathological tested bacteria and 1 × 10^6 CFU/mL yeast spread on NA and SDA, respectively. After the media cooled and solidified, wells (10 mm in diameter) were made in the solidified agar and loaded with 100 μL of the tested compound solution prepared by dissolving 10 mg of the chemical compound in 1 mL dimethyl sulfoxide (DMSO). The inoculated plates were then incubated for 24 h at 37 °C for bacteria and yeast growth. DMSO served as negative control. Ciprofloxacin (10 mg/mL) and ketoconazole (10 mg/mL) were used as standards for antibacterial and antifungal activity, respectively. After incubation, antimicrobial activity was evaluated by measuring the zone of inhibition against the test organisms and compared with that of the standard. Antimicrobial activities were expressed as the diameter of the inhibition zone (IZ) in mm. The experiment was carried out in triplicate and the average zone of inhibition was calculated.

[3] = system: Bacillus subtilis ATCC 6633; experiment: Agar well diffusion, B. subtilis; type: cell-based; settings: ATCC6633, 100 μL of 10 mg/mL in DMSO, read-out: diameter of inhibition zone, BS
Description: as §1, §2

[4] = system: Bacillus megaterium ATCC 9885; experiment: Agar well diffusion, B. megaterium; type: cell-based; settings: Priestia megaterium, ATCC9885, 100 μL of 10 mg/mL in DMSO, read-out: diameter of inhibition zone, BM
Description: as §1, §2

[5] = system: Escherichia coli ATCC 2592; experiment: Agar well diffusion, E. coli; type: cell-based; settings: ATCC2592, 100 μL of 10 mg/mL in DMSO, read-out: diameter of inhibition zone, EC
Description: as §1, §2

[6] = system: Pseudomonas aeruginosa ATCC 27,953; experiment: Agar well diffusion, P. aeruginosa; type: cell-based; settings: ATCC27, 100 μL of 10 mg/mL in DMSO, read-out: diameter of inhibition zone, PA
Description: as §1, §2

[7] = system: Saccharomyces cerevisiae local isolate; experiment: Agar well diffusion, S. cerevisiae; type: cell-based; settings: well diffusion, 100 μL of 10 mg/mL in DMSO, S. cerevisiae, read-out: diameter of inhibition zone, SC
Description: as §1, §2

[8] = system: Candida albicans NRRL Y-477; experiment: Agar well diffusion, C. albicans; type: cell-based; settings: NRRLY477, 100 μL of 10 mg/mL in DMSO, read-out: diameter of inhibition zone, CA
Description: as §1, §2

[9] = system: Staphylococcus aureus ATCC 29213; experiment: MIC, two-fold serial dilution, S. aureus; type: cell-based; settings: ATCC29213, read-out: Minimum inhibitory concentration, SA
Description: as §1
(§3) The bacteriostatic activity of the active compounds (having IZ > 16 mm) was then evaluated using the two-fold serial dilution technique. Two-fold serial dilutions of the tested compounds solutions were prepared using the proper nutrient broth to reach final concentrations of 1000, 500, 250, and 125 μg/mL. The tubes were then inoculated with the test microorganisms grown in their suitable broth at 37 °C for 24 h (1 × 10^8 CFU/mL for bacteria and 1 × 10^6 CFU/mL of yeast), 0.1 mL of the above inoculum was administered per 5 mL, and the tubes were incubated at 37 °C for 24 h. The lowest concentration showing no growth was taken as the MIC.

[10] = system: Bacillus subtilis ATCC 6633; experiment: MIC, two-fold serial dilution, B. subtilis; type: cell-based; settings: ATCC6633, read-out: Minimum inhibitory concentration, BS
Description: as §1, §3

[11] = system: Bacillus megaterium ATCC 9885; experiment: MIC, two-fold serial dilution, B. megaterium; type: cell-based; settings: Priestia megaterium, ATCC9885, read-out: Minimum inhibitory concentration, BM
Description: as §1, §3

[12] = system: Escherichia coli ATCC 2592; experiment: MIC, two-fold serial dilution, E. coli; type: cell-based; settings: ATCC2592, read-out: Minimum inhibitory concentration, EC
Description: as §1, §3

[13] = system: Pseudomonas aeruginosa ATCC 27,953; experiment: MIC, two-fold serial dilution, P. aeruginosa; type: cell-based; settings: ATCC27, read-out: Minimum inhibitory concentration, PA
Description: as §1, §3

[14] = system: Saccharomyces cerevisiae local isolate; experiment: MIC, two-fold serial dilution, S. cerevisiae; type: cell-based; settings: two-fold serial dilution, S. cerevisiae, read-out: Minimum inhibitory concentration, SC
Description: as §1, §3

[15] = system: Candida albicans NRRL Y-477; experiment: MIC, two-fold serial dilution, C. albicans; type: cell-based; settings: NRRLY477, read-out: Minimum inhibitory concentration, CA
Description: as §1, §3

trypsin = experiment: Proteinase-inhibitory activity; type: biochemical; settings: 250 µg/mL; mean ± SD (n = 3)
Method: The newly synthesised compounds were individually tested for their in vitro anti-inflammatory activity against proteinase enzyme. […] This test was performed at the Pharmacology Department, Medical Research Division, National Research Centre, Cairo, Egypt. Furthermore, compounds 2–8 were evaluated for their COX1/COX2 inhibitory activities.
The test was performed according to El-Serwy et al. with minor modifications. The reaction mixture (2 mL) contained 0.06 mg trypsin, 20 mM Tris HCl buffer (pH 7.4), and 1 mL test sample (250 µg/mL for each compound). After incubating for 5 min, 1 mL of 0.8% (w/v) casein was added. The mixture was incubated for an additional 20 min. The reaction was arrested by adding 1 mL of 10% perchloric acid. The cloudy suspension was centrifuged, and the absorbance of the supernatant was read at 280 nm. Reference standard aspirin was used as the positive control. The experiment was performed in triplicate. The percent inhibition of protein denaturation was calculated using the following Equation (2):(2) % Inhibition=100−A control −A test/A control×100 where Acontrol and Atest represent the absorbance of the control reaction without and with the sample, respectively.

tested microorganisms = experiment: MIC, summary over the tested microorganisms; type: cell-based; settings: two-fold serial dilution; read-out: MIC against one or more tested microorganisms
Description: as §1, §3

SMILES: Cc1ccc2oc(=O)c(S(=O)(=O)Nc3ccc(C(=O)/C=C/c4ccc(Cl)cc4)cc3)c(O)c2c1 [9d, (E)-N-(4-(3-(4-chlorophenyl)acryloyl)phenyl)-4-hydroxy-6-methyl-2-oxo-2H-chromene-3-sulfonamide]
- IC50 [1]: — ((—): inactive (IC50 > 200 μg/mL))
- zone of inhibition at 10000 µg/mL [2]: 28 mm
- zone of inhibition at 10000 µg/mL [3]: 29 mm
- zone of inhibition at 10000 µg/mL [4]: 29 mm
- zone of inhibition at 10000 µg/mL [5]: 38 mm
- zone of inhibition at 10000 µg/mL [6]: 29 mm
- zone of inhibition at 10000 µg/mL [7]: 31 to 32 mm
- zone of inhibition at 10000 µg/mL [8]: 30 mm
- MIC [9]: 250 mg/L (≈ 504 µM)
- MIC [10]: 250 mg/L (≈ 504 µM)
- MIC [11]: 250 mg/L (≈ 504 µM)
- MIC [12]: 250 mg/L (≈ 504 µM)
- MIC [13]: 250 mg/L (≈ 504 µM)
- MIC [14]: 125 mg/L (≈ 252 µM)
- MIC [15]: 125 mg/L (≈ 252 µM)
- % Inhibition (proteinase) (trypsin): 31.88 ± 3.82%
- MIC (tested microorganisms): 125 mg/L (≈ 252 µM)
- melting point: 141 to 143 °C

SMILES: COc1ccc(/C=C/C(=O)c2ccc(NS(=O)(=O)c3c(O)c4cc(Cl)ccc4oc3=O)cc2)cc1 [9e, (E)-6-Chloro-4-hydroxy-N-(4-(3-(4-methoxyphenyl)acryloyl)phenyl)-2-oxo-2H-chromene-3-sulfonamide]
- IC50 [1]: — ((—): inactive (IC50 > 200 μg/mL))
- zone of inhibition at 10000 µg/mL [2]: 23 mm
- zone of inhibition at 10000 µg/mL [3]: 21 mm
- zone of inhibition at 10000 µg/mL [4]: 20 mm
- zone of inhibition at 10000 µg/mL [5]: 21 mm
- zone of inhibition at 10000 µg/mL [6]: 21 mm
- zone of inhibition at 10000 µg/mL [7]: 29 mm
- zone of inhibition at 10000 µg/mL [8]: 23 mm
- MIC [9]: 500 mg/L (≈ 977 µM)
- MIC [10]: 500 mg/L (≈ 977 µM)
- MIC [11]: 500 mg/L (≈ 977 µM)
- MIC [12]: 500 mg/L (≈ 977 µM)
- MIC [13]: 500 mg/L (≈ 977 µM)
- MIC [14]: 250 mg/L (≈ 488 µM)
- MIC [15]: 500 mg/L (≈ 977 µM)
- % Inhibition (proteinase) (trypsin): 22.83 ± 4.88%
- melting point: > 300 °C

SMILES: COc1ccc(/C=C/C(=O)c2ccc(NS(=O)(=O)c3c(O)c4cc(C)ccc4oc3=O)cc2)cc1 [9f, (E)-4-Hydroxy-N-(4-(3-(4-methoxyphenyl)acryloyl)phenyl)-6-methyl-2-oxo-2H-chromene-3-sulfonamide]
- IC50 [1]: — ((—): inactive (IC50 > 200 μg/mL))
- zone of inhibition at 10000 µg/mL [2]: 25 mm
- zone of inhibition at 10000 µg/mL [3]: 25 mm
- zone of inhibition at 10000 µg/mL [4]: 26 mm
- zone of inhibition at 10000 µg/mL [5]: 26 mm
- zone of inhibition at 10000 µg/mL [6]: 28 mm
- zone of inhibition at 10000 µg/mL [7]: 26 mm
- zone of inhibition at 10000 µg/mL [8]: 24 mm
- MIC [9]: 500 mg/L (≈ 1020 µM)
- MIC [10]: 500 mg/L (≈ 1020 µM)
- MIC [11]: 250 mg/L (≈ 509 µM)
- MIC [12]: 250 mg/L (≈ 509 µM)
- MIC [13]: 250 mg/L (≈ 509 µM)
- MIC [14]: 500 mg/L (≈ 1020 µM)
- MIC [15]: 500 mg/L (≈ 1020 µM)
- % Inhibition (proteinase) (trypsin): 21.7 ± 7.6%
- melting point: > 300 °C
